Assays:
RBCs from rat = assay: Hemolysis assay; assay type: cell-based; settings: 37° C., 24 h, Triton X as positive control
Description: 7×10^7 RBCs from rat were separated by centrifugation of whole blood. The supernatant containing plasma and platelets were removed. The pellets were washed by PBS until the supernatant was clear. Different formulations were diluted to a required concentration and added to the tubes containing 1 mL diluted RBCs. The cell suspension was mixed gently and incubated at 37° C. for 24 h. Triton X-100 was served as a positive control. Hemoglobin released from RBCs was measured spectrophotometrically. The concentration of the formed product was measured at 540 nm using an ELISA reader (TECAN, Mannedorf, Switzerland) to qualify the toxicity of liposomes to RBCs.

[1] = Biosafety evaluation by serum biochemical tests; assay type: in vivo; settings: tumor-bearing mice, 48 h after last treatment
Description: Tumor-bearing mice were treated as described above. Blood samples were taken from the orbital sinus of mice at 48 h after the final injection. The harvested samples were put at 37° C. to induce the clotting reaction and centrifuged for 15 min. The resultant serum samples were stored at −80° C. until further analysis. The functions of liver, kidney and heart were examined by detecting the serum levels of glutamate pyruvate transaminase (GPT), creatinine (CRE), and creatine kinase-MB (CK-MB) using the corresponding activity assay kits (Fujifilm, Tokyo, Japan) according to the manufacturer's instruction using a clinical dry chemistry analyzer (Fuji Dri-Chem 7000V, Fujifilm Corporation, Tokyo, Japan).
Data shown indicate the mean±SD of four experiments.

| Compound | Hemolysis (RBCs from rat) [%] | Serum levels of GPT or GOT, CRE, and CK-MB or LDH [1] |
| --- | --- | --- |
| Triton X-100 | 100 | – |
| O=C1[O][Pt]2([NH][C@@H]3CCCC[C@H]3[NH]2)[O]C1=O [Oxa, oxaliplatin] | – | remarkably escalated |

Reference: US11690803B2, “Tumor pH-shiftable coating and the nucleus-directed nanoparticles facilitate the targeted chemotherapy and gene therapy against multiple cancers and use thereof” (National Yang Ming Chiao Tung University, priority 2019, dated 2023)
